This is an account of results in patent US10172911B2, “Methods of modulating erythropoiesis with arginine vasopressin receptor 1B molecules” (The United States of America, as represented by the …, priority 2013, dated 2019).

“Also recorded” adds a separate entry of the source.

The test system of assay [1] is CD34^+ cells from healthy donors. Description: CFU assay (E-CFU, GM-CFU) of human CD34+ cells in Methocult. It counts as cell-based. To be noted: for effect of pathway inhibitor on CFU increase elicited by AVP: 10^−8 M AVP; for effect of pathway inhibitor on CFU increase elicited by AVPR1B agonist: 10^−8 M AVPR1B agonist; for effect of pathway inhibitor on GM-CFU increase induced by OXT: 10^−8 M OXT. The procedure: CD34^+ cells from healthy donors were plated into semi-solid methylcellulose medium (Methocult) containing hematopoietic factors (GM-CSF 5 ng/ml, IL-3 5 ng/ml, SCF 50 ng/ml, EPO 2.5 U/ml).
The number of erythroid colony forming units (E-CFU) and granulocyte-macrophage colony forming units (GM-CFU) were determined based on morphological criteria on 7th and 14th days in culture.

In assay [2] the test system is human CD34+ hematopoietic progenitors. Description: Intracellular Ca2+ measurement in Fura-2 loaded human CD34+ hematopoietic progenitors. It counts as cell-based. To be noted: human CD34+ cells; for intracellular calcium levels: agonist stimulation. The procedure: Human BMSCs were loaded with Fura-2 and the cells were stimulated with AVP, or OXT. Intracellular Ca^2+ concentration was assayed as described before (Ely, J. A. et al. J Biol Chem 266, 18635-18641 (1991). To study their response to AVP and specific AVP receptor agonists and antagonists human CD34+ hematopoietic progenitors were Fura-2 loaded and Cytoplasmic Ca2+ measurements were performed in cells kept in suspension using a fluorescence spectrophotometer (Deltascan, Photon Technology International). Ratiometric measurements were recorded at 340/380 nm excitation and 500 nm emission and the ratios were plotted against time. Ionomycin (10 μM) was added at the end of each run to determine the maximum fluorescence ratio.
For orientation: Calcium assays in cells follow changes in intracellular calcium, usually with a dye or a luminescent sensor.

In another assay the test system is human CD34^+ cells. Nature of the assay: BrdU cell proliferation assay, human CD34+ cells. It counts as cell-based. The procedure: (§1) Sorted mouse bone marrow LSK cells (10000 cells/well) were plated in a 96 well plate in Stemspan serum free expansion medium ([…] Technologies, Vancouver, Canada) with Pen/Strep, and the following hematopoietic factors: 100 ng/ml TPO, 50 ng/ml FLT3L, 50 ng/ml IL-3 and SCF 100 ng/ml (Peprotech, Rocky Hill, N.J.). Cells were treated with […] (Sigma-Aldrich, St. Louis, Mo.). When using human CD34^+ cells (5000 cells/well), human SCF, TPO, FLT3L and G-CSF (Peprotech, each at 50-100 ng/ml) were added to the Stemspan medium. Cells were treated with 10^−8M-10^−14M AVP. After 24 hours, BrdU at a 1:1000 concentration was added to the cultures and incorporation of BrdU was measured using the Cell Proliferation ELISA BrdU kit (Roche, Mannheim, Germany) after another 24 hours of incubation.

The next assay concerns Human BMSCs. Nature of the assay: BMSC signalling (ERK phosphorylation, cAMP, intracellular Ca2+). In kind it is cell-based. The conditions noted are these: BMSC cultures.
In assay [3] the test system is mouse bone marrow LSK cells. Nature of the assay: BrdU cell proliferation assay, sorted mouse bone marrow LSK cells. The conditions noted are these: 10^−8M-10^−14M, 2 days culture. It counts as cell-based. The procedure:
as §1

The test system of a further assay is C57BL6 male mice. Nature of the assay: Hemorrhage anemia model, Alzet pump delivery. In kind it is in vivo, mouse. The conditions noted are these: hemorrhage, FIG. 9D. The procedure:
Mice were anesthetized with isoflurane. Twenty five percent of their calculated circulating blood volume (calculated based on Animal Research Advisory Committee Guidelines for survival bleeding of mice and rats, OACU, NIH) was drained from the retro-orbital plexus.
The reticulocyte ratio of peripheral blood was determined using the Retic-Count flow kit (BD Biosciences) according to the manufacturer's instructions. Hematocrit values were measured with an automated analyzer and microhematocrit tubes. The reticulocyte index was calculated as follows: reticulocyte ratio %/total gated cells×hematocrit/45.
To infuse vasopressin into the mice, AVP filled ALZET pumps were implanted subcutaneously on the dorsal aspect of the neck (5 ug/day, Alzet 1007D—7 days, 2002-14 days). Vasopressin was also given immediately and 6 hours later as a bolus injection (100 μg/kg). Alzet pumps were inserted subcutaneously. The dimensions and pump specification are: ALZET, (DURECT Corporation, Cupertino, Calif., USA) mini-osmotic pump models 1007D or 2002. The pumps deliver 0.5 μl/h of the desired substance for a for 2-week period. In some cases, erythropoietin antibody (100 μg/mice) was given before anesthesia with the corresponding control antibody. […] Following the initial hemorrhage blood samples were taken at 2, 4 and in some cases 6 days later to determine hematocrit and corrected reticulocyte values.

The mark [4] stands for this setting: per 1000 plated CD34+ cells, 10^−8 M.

Protocol for Human BMSCs: For cAMP quantitation, 8×10^5 per well human BMSCs were plated in 6 well plates and left to attach overnight. Next day, the medium was changed and the cells were stimulated with AVP or deamino-Cys^1, D-Arg^8 AVP (DDAVP, a V2 receptor agonist) at 10^−6 M for 4 minutes. Cells were washed with PBS and lysed with R&D cell lysis buffer. Cyclic AMP was measured with the R&D cAMP Parameter assay kit (R&D Systems, Minneapolis, Minn.) according to manufacturer's instructions. Total protein concentrations of the cell lysates were measured using the Micro BCA Protein Assay kit (Pierce, Rockford, Ill.) and cAMP amount was normalized to 100 μg of total protein.

Turning to “1L-6-hydroxymethyl-chiro-inositol 2-(R)-2-O-methyl-3-O-octadecylcarbonate [HIMO]”, in assay [1] (Dkk1 200 ng/ml, HIMO 10^−8 M), the “effect of pathway inhibitor on CFU increase elicited by AVP” value is “had no effect”; the “effect of pathway inhibitor on CFU increase elicited by AVPR1B agonist” value is on record as “had no effect”; the “effect of pathway inhibitor on GM-CFU increase induced by OXT” value is recorded as “did block”; the “GM-CFU numbers, inhibitor on its own” value is on record as “Neither Dkk1 nor HIMO affected GM-CFU numbers on their own”.

As to `COc1ccc(S(=O)(=O)N2C(=O)[C@@](c3ccccc3OC)(N3C[C@H](O)C[C@H]3C(=O)N(C)C)c3cc(Cl)ccc32)c(OC)c1` [AVPR1B antagonist, SSR 149415 - Nelivaptan], in assay [2] (antagonist), the “block of the AVP-induced increase in calcium” value is recorded as “could be blocked”. For the same molecule, the “block of AVP / AVPR1B agonist induced proliferation of human HSPCs” value in the assay on human CD34^+ cells (antagonist) is recorded as “blocked; also recorded: both effects were seen”.

As for `NC(=O)CC[C@@H]1NC(=O)[C@H](Cc2ccccc2)NC(=O)[C@H](Cc2ccc(O)cc2)NC(=O)CCSSC[C@@H](C(=O)N2CCC[C@H]2C(=O)N[C@H](CCCN=C(N)N)C(=O)NCC(N)=O)NC(=O)[C@H](CC(N)=O)NC1=O` [AVPR2 agonist, deamino-Cys^1, D-Arg^8 AVP], the “cyclic AMP” value in the assay with Human BMSCs (10^−6 M for 4 minutes) is “increase in cyclic AMP”.

As to `CC[C@H](C)[C@@H]1NC(=O)[C@H](Cc2ccc(O)cc2)NC(=O)[C@@H](N)CSSC[C@@H](C(=O)N2CCC[C@H]2C(=O)N[C@@H](CC(C)C)C(=O)NCC(N)=O)NC(=O)[C@H](CC(N)=O)NC(=O)[C@H](CCC(N)=O)NC1=O` [OXT, oxytocin], in the assay with Human BMSCs, the ERK phosphorylation entry is “induced ERK phosphorylation” and the intracellular calcium result was “increase in intracellular Ca^2+ concentrations”. In addition, the “proliferation (BrdU incorporation) of mouse LSK cells” value in assay [3] is “induced proliferation; also recorded: stimulated LSK proliferation”. Also, the “proliferation (BrdU) of human CD34+ cells / HSPCs” value in the assay on human CD34^+ cells is “responded to AVP and OXT in much the same way as mouse LSK cells did”. For the same molecule, the “granulocyte macrophage-colony forming unit (GM-CFU) numbers” value in assay [1] (setting [4]) was “increased only GM-CFU numbers”.

On to `NC[C@H](O)c1ccc(O)c(O)c1` [noradrenaline], for which, in assay [1] (setting [4]), the “erythroid-colony forming unit (E-CFU) numbers” value is reported as “significantly increased”.

As to “[Phe2, Ile3, Orn8] Vasopressin [AVPR1A agonist]”, the intracellular calcium levels result in assay [2] was “did not respond”.

For the molecule dCha^4AVP, in assay [2], the intracellular calcium levels result is on record as “increased intra-cellular Ca^2+ concentrations”. In assay [1] (10^−8M), the colony formation result is “stimulated colony formation”.

As for d[Leu4, Lys8]-VP [dLeu^4Lys^8-VP], the recovery times entry in the assay on C57BL6 male mice is “significantly improved recovery times”.

Consider desGlyAVP, for which, in assay [3], the “proliferation (BrdU incorporation) of mouse LSK cells” value is “did not”.

B1: Dkk1: dickkopf related protein 1, Wnt pathway inhibitor (protein, UniProt O94907 32-266, looked up)
Dickkopf-related protein 1: TLNSVLNSNAIKNLPPPLGGAAGHPGSAVSAAPGILYPGGNKYQTIDNYQPYPCAEDEECGTDEYCASPTRGGDAGVQICLACRKRRKRCMRHAMCCPGNYCKNGICVSSDQNHFRGEIEETITESFGNDHSTLDGYSRRTTLSSKMYHTKGQEGSVCLRSSDCASGLCCARHFWSKICKPVLKEGQVCTKHRRKGSHGLEIFQRCYCGEGLSCRIQKDHHQASNSSRLHTCQRH
Consider B1, for which, in assay [1] (Dkk1 200 ng/ml, HIMO 10^−8 M), the “effect of pathway inhibitor on CFU increase elicited by AVP” value is “blocked the increase in GM-CFU numbers”, the “effect of pathway inhibitor on CFU increase elicited by AVPR1B agonist” value is “blocked the increase in GM-CFU numbers” and the “effect of pathway inhibitor on GM-CFU increase induced by OXT” value was “did not alter”. For the same molecule, the “effect of pathway inhibitor on CFU increase elicited by AVP” value in assay [1] (Dkk1 200 ng/ml, HIMO 10^−8 M, listed as DKK-1) was “did block”.
